The target in one test is T1, hEP4 (Homo sapiens, UniProt P35408).
T1 construct: expressed in transfected cells; host or cells: HEK293
Description: hEP4 cAMP assay. In kind it is cell-based. The conditions noted are these: HEK293 cells overexpressing hEP4; PGE2 agonist 20 nM; graded per Table 21; read-out: IC50 (nM) EP4 cAMP. The protocol: HEK293 cells overexpressing hEP4 were cultured in growth medium (GM: MEM (Gibco™, 11095080)/10% HI FBS (Gibco™, 10082147)/1% penicillin/streptomycin). Before the experiment, the growth medium was removed, and starvation medium (HBSS (Gibco™ 14025076)/10% GM) was added. Thereafter, the cells were incubated for 4 hours. HEK293 cells harboring hEP4 were detached from the culture dish with a non-enzymatic cell dissociation buffer (Gibco™, 15040066). The cells were resuspended in assay buffer (AB: HBSS, 0.1% BSA stabilizer, 0.5 mM IBMX, 5 mM HEPES).
(§1) 1,000 cells in 5 μL of AB were seeded per well in a 384 well plate (Corning®, 3570), and stock solutions of test compounds were prepared at a concentration of 1 mM in DMSO and serially diluted in DMSO to the concentration required for the inhibition dose response curve (test concentration range of 10 μM-0.001 nM). PGE2 (Sigma, P0409, stock solution: 100 μM) was used as an agonist at a final concentration of 20 nM corresponding to EC50-80. 2.5 μL of the diluted compound and 2.5 μL of PGE2 (20 nM final concentration) were transferred to the assay plate, and then the plate was incubated at room temperature for 18.5 minutes.
(§2) 5 μL of each donor (Eu-cAMP tracer) and acceptor (ULight-anti-cAMP) was added, and the plate was incubated in the dark for 1 hour at room temperature, and then a Varioskan LUX multimode microplate reader was used to obtain the results (excitation: 334 nm, emission: 615 and 665 nm). The resulting FRET fluorescence value (665 nm/615 nm*10000) was converted and then calculated as a percentage of cAMP compared to the DMSO control value. IC50 values and curves were generated with GraphPad Prism software using log (inhibitor) versus response-variable slope (4 parameters), and the median of multiple experiments was taken as the experiment result.

Another test addresses T2, hEP2 (Homo sapiens, UniProt P43116).
T2 construct: expressed in transfected cells; host or cells: HEK293
Description: hEP2 cAMP assay. It counts as cell-based. The following applies: HEK293 cells overexpressing hEP2; PGE2 agonist 400 pM; graded per Table 21; read-out: IC50 (nM) EP2 cAMP. The procedure:
HEK293 cells overexpressing hEP2 were cultured in growth medium (GM: MEM (Gibco™, 11095080)/10% HI FBS (Gibco™, 10082147)/1% penicillin/streptomycin). Before the experiment, the growth medium was removed, and starvation medium (HBSS (Gibco™, 14025076)/10% GM) was added. Thereafter, the cells were incubated for 4 hours. The HEK293 cells harboring hEP2 were detached from the culture dish with a non-enzymatic cell dissociation buffer (Gibco™, 15040066). The cells were resuspended in assay buffer (AB: HBSS, 0.1% BSA stabilizer, 0.5 mM IBMX, 5 mM HEPES).
as §1, with “(Corning™,” for “(Corning®,”, “1” for “100”, “400 pM” for “20 nM”, “(400 pM” for “(20 nM”, “12” for “18.5”
as §2, with “relative” for “compared”, “slopes” for “slope”
(Cyclic AMP is a second messenger, typically raised through Gs and lowered through Gi signalling.)

T2 sequence (P43116 whole entry): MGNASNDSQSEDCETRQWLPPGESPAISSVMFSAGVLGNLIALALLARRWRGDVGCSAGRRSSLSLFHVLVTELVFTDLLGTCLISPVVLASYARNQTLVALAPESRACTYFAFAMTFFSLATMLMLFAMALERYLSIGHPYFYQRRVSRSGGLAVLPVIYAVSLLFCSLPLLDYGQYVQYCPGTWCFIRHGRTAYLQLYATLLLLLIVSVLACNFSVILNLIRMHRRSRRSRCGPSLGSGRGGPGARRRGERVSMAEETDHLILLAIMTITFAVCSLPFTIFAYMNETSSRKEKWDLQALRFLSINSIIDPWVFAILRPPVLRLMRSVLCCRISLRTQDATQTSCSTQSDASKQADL
T1 sequence (P35408 whole entry): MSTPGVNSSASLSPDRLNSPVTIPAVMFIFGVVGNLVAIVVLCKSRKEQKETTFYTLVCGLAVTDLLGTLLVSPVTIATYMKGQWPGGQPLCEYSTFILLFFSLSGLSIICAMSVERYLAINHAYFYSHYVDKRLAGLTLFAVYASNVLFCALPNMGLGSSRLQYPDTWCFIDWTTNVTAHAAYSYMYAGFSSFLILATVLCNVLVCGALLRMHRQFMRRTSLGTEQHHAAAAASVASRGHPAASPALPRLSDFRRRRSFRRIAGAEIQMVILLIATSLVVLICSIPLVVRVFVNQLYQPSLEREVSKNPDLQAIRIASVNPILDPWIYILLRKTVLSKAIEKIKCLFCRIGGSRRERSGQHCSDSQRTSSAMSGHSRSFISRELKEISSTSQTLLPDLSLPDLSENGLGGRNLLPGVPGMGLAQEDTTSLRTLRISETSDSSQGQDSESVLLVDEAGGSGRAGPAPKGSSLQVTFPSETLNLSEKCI

The IC50 is the concentration that gives 50% inhibition. `O=C(NC1CC2(C1)CC(C(=O)O)C2)c1c(Br)sc(Br)c1Cc1ccc(-c2ccccc2)cc1` (stereo not drawn) [Example 16, 6-(4-([1,1′-biphenyl]-4-ylmethyl)-2,5-dibromothiophene-3-carboxamido)spiro[3.3]heptane-2-carboxylic acid]: the 50% inhibitory concentration (IC50) at hEP4 is 500 to 5000 nM; on hEP2, more than 10000 nM.

For `O=C(NC1CC2(C1)CC(C(=O)O)C2)c1c(Cl)sc(Cl)c1Cc1ccc(-c2ccccc2)cc1` (stereo not drawn) [Example 17, 6-(4-([1,1′-biphenyl]-4-ylmethyl)-2,5-dichlorothiophene-3-carboxamido)spiro[3.3]heptane-2-carboxylic acid], the IC50 is less than 500 nM at hEP4 and 5000 to 10000 nM on hEP2.

In the case of `O=C(NC1CC2(C1)CC(C(=O)O)C2)c1sccc1Cc1ccc(-c2ccccc2)cc1` (stereo not drawn) [Example 18, 6-(3-([1,1′-biphenyl]-4-ylmethyl)thiophene-2-carboxamido)spiro[3.3]heptane-2-carboxylic acid], the IC50 at hEP4 and on hEP2 was 500 to 5000 nM in each case.

In the case of `COc1cc(F)cc(-c2ccc(Cc3ccsc3C(=O)NC3CC4(C3)CC(C(=O)O)C4)cc2)c1` (stereo not drawn) [Example 19, 6-(3-((3′-fluoro-5′-methoxy-[1,1′-biphenyl]-4-yl)methyl)thiophene-2-carboxamido) spiro[3.3]heptane-2-carboxylic acid], the values for the IC50 on hEP4 and on hEP2 were less than 500 nM and 500 to 5000 nM, respectively.

Regarding `Cc1scc(C(=O)NC2CC3(C2)CC(C(=O)O)C3)c1Cc1ccc(-c2ccccc2)cc1` (stereo not drawn) [Example 20, 6-(4-([1,1′-biphenyl]-4-ylmethyl)-5-methylthiophene-3-carboxamido)spiro[3.3]heptane-2-carboxylic acid], the values for the IC50 at hEP4 and at hEP2 were less than 500 nM and 500 to 5000 nM, respectively.

Regarding `O=C(NC1CC2(C1)CC(C(=O)O)C2)c1csc(-c2ccccc2)c1Cc1ccc(-c2ccccc2)cc1` (stereo not drawn) [Example 21, 6-(4-([1,1′-biphenyl]-4-ylmethyl)-5-phenylthiophene-3-carboxamido)spiro[3.3] heptane-2-carboxylic acid], the IC50 on hEP4 and at hEP2 was more than 10000 nM throughout.

Regarding `O=C(NC1CC2(C1)CC(C(=O)O)C2)c1csc(C2CC2)c1Cc1ccc(-c2ccccc2)cc1` (stereo not drawn) [Example 22], the IC50 on hEP4 and at hEP2 was 500 to 5000 nM each time.

With `Cc1sc(C)c(C(=O)NC2CC3(C2)CC(C(=O)O)C3)c1Cc1ccc(Cl)cc1` (stereo not drawn) [Example 23, 6-(4-(4-chlorobenzyl)-2,5-dimethylthiophene-3-carboxamido)spiro[3.3]heptane-2-carboxylic acid], the half-maximal inhibitory concentration (IC50) at hEP4 and on hEP2 was more than 10000 nM in each case.

As to `COc1ccccc1-c1ccc(Cc2c(C)sc(C)c2C(=O)NC2CC3(C2)CC(C(=O)O)C3)cc1` (stereo not drawn) [Example 24, 6-(4-((2′-methoxy-[1,1′-biphenyl]-4-yl)methyl)-2,5-dimethylthiophene-3-carboxamido)spiro[3.3] heptane-2-carboxylic acid], the IC50 on hEP4 was 500 to 5000 nM; at hEP2, more than 10000 nM.

For `Cc1sc(C)c(C(=O)NC2CC3(C2)CC(C(=O)O)C3)c1Cc1ccc(-c2ccccc2O)cc1` (stereo not drawn) [Example 25, 6-(4-((2′-hydroxy-[1,1′-biphenyl]-4-yl)methyl)-2,5-dimethylthiophene-3-carboxamido)spiro[3.3] heptane-2-carboxylic acid], the IC50 is 5000 to 10000 nM at hEP4 and more than 10000 nM on hEP2.

For the compound `Cc1sc(C)c(C(=O)NC2CC3(C2)CC(C(=O)O)C3)c1Cc1ccc(-c2ccncc2)cc1` (stereo not drawn) [Example 26, 6-(2,5-dimethyl-4-(4-(pyridin-4-yl)benzyl)thiophene-3-carboxamido)spiro[3.3]heptane-2-carboxylic acid], the IC50 on hEP4 was 500 to 5000 nM; at hEP2 it was more than 10000 nM.

In the case of `Cc1sc(C)c(C(=O)NC2CC3(C2)CC(C(=O)O)C3)c1Cc1ccc(-c2cccnc2)cc1` (stereo not drawn) [Example 27, 6-(2,5-dimethyl-4-(4-(pyridin-3-yl)benzyl)thiophene-3-carboxamido)spiro[3.3]heptane-2-carboxylic acid], the values for the IC50 at hEP4 and at hEP2 were 500 to 5000 nM and more than 10000 nM, respectively.

Take `Cc1ccc(-c2ccc(Cc3c(C)sc(C)c3C(=O)NC3CC4(C3)CC(C(=O)O)C4)cc2)cc1C` (stereo not drawn) [Example 28, 6-(4-((3′,4′-dimethyl-[1,1′-biphenyl]-4-yl)methyl)-2,5-dimethylthiophene-3-carboxamido)spiro[3.3]heptane-2-carboxylic acid]: the results for the IC50 at hEP4 and on hEP2 were less than 500 nM and 500 to 5000 nM, respectively.

As to `COc1cccc(-c2ccc(Cc3c(C)sc(C)c3C(=O)NC3CC4(C3)CC(C(=O)O)C4)cc2)c1` (stereo not drawn) [Example 29, 6-(4-((3′-methoxy-[1,1′-biphenyl]-4-yl)methyl)-2,5-dimethylthiophene-3-carboxamido)spiro[3.3]heptane-2-carboxylic acid], the IC50 on hEP4 is less than 500 nM; on hEP2 it was 500 to 5000 nM.

`Cc1sc(C)c(C(=O)NC2CC3(C2)CC(C(=O)O)C3)c1Cc1ccc(-c2cccc(C#N)c2)cc1` (stereo not drawn) [Example 30]: the values for the IC50 at hEP4 and at hEP2 were less than 500 nM and more than 10000 nM, respectively.

On to `CCc1ccc(-c2ccc(Cc3c(C)sc(C)c3C(=O)NC3CC4(C3)CC(C(=O)O)C4)cc2)cc1` (stereo not drawn) [Example 31, 6-(4-((4′-ethyl-[1,1′-biphenyl]-4-yl)methyl)-2,5-dimethylthiophene-3-carboxamido)spiro[3.3]heptane-2-carboxylic acid], for which the figures for the half-inhibitory concentration (IC50) on hEP4 and at hEP2 were less than 500 nM and 5000 to 10000 nM, respectively.

With `Cc1sc(C)c(C(=O)NC2CC3(C2)CC(C(=O)O)C3)c1Cc1ccc(C2=CCCCC2)cc1` (stereo not drawn) [Example 32, 6-(2,5-dimethyl-4-((2′,3′,4′,5′_ tetrahydro-[1,1′-biphenyl]-4-yl)methyl)thiophene-3-carboxamido)spiro[3.3]heptane-2-carboxylic acid], the IC50 at hEP4 was 500 to 5000 nM; at hEP2, more than 10000 nM.

As to `Cc1sc(C)c(C(=O)NC2CC3(C2)CC(C(=O)O)C3)c1Cc1ccc(-c2ccoc2)cc1` (stereo not drawn) [Example 33, 6-(4-(4-(furan-3-yl)benzyl)-2,5-dimethylthiophene-3-carboxamido)spiro[3.3]heptane-2-carboxylic acid], the 50% inhibitory concentration (IC50) is less than 500 nM at hEP4 and 500 to 5000 nM at hEP2.

Turning to `COc1cc(F)cc(-c2ccc(Cc3c(C)sc(C)c3C(=O)NC3CC4(C3)CC(C(=O)O)C4)cc2)c1` (stereo not drawn) [Example 34, 6-(4-((3′-fluoro-5′-methoxy-[1,1′-biphenyl]-4-yl)methyl)-2,5-dimethylthiophene-3-carboxamido)spiro[3.3]heptane-2-carboxylic acid], the IC50 on hEP4 is less than 500 nM; at hEP2, 500 to 5000 nM.

Take `Cc1sc(C)c(C(=O)NC2CC3(C2)CC(C(=O)O)C3)c1Cc1ccc(-c2ccc(S(C)(=O)=O)cc2)cc1` (stereo not drawn) [Example 35, 6-(2,5-dimethyl-4-((4′-(methylsulfonyl)-[1,1′-biphenyl]-4-yl)methyl)thiophene-3-carboxamido)spiro[3.3]heptane-2-carboxylic acid]: the IC50 was 5000 to 10000 nM at hEP4 and more than 10000 nM at hEP2.

With `Cc1sc(C)c(C(=O)NC2CC3(C2)CC(C(=O)O)C3)c1Cc1ccc(-c2ccc(C(=O)OC(C)(C)C)cc2)cc1` (stereo not drawn) [Example 36, 6-(4-((4′-(tert-butoxycarbonyl)-[1,1′-biphenyl]-4-yl)methyl)-2,5-dimethylthiophene-3-carboxamido)spiro[3.3]heptane-2-carboxylic acid], the IC50 on hEP4 was less than 500 nM; on hEP2 it was 5000 to 10000 nM.

The values are drawn from patent US20230365582A1, “NOVEL COMPOUNDS HAVING INHIBITORY ACTIVITY ON PROSTAGLANDIN E2 RECEPTOR AND USES THEREOF” (KANAPH THERAPEUTICS INC., priority 2020, published 2023).
